Reference: US9259491B2, “Class of diazepine derivative chelating agents and complexes with paramagnetic metals thereof as MRI contrast agents” (BRACCO IMAGING S.P.A., priority 2012, dated 2016)

Columns and labels:
[1] = Millimolar relaxivity r1p from T1 measurements in water, HSA 4% and human plasma (0.47T/20 MHz, 25° C.); format: physicochemical
Method: (§1) For all the compounds, longitudinal relaxation times (T1) at 20 MHz and at 25° C. on a mq20 Minispec instrument (Bruker Biospin, Germany) were measured in water, human serum albumin at physiological concentration and human plasma. Millimolar relaxivity r1p was thus determined from T1 measurements using the following equation: R^i1obs=1/T^i,J1obs=r^i,j1p·[Gd^3+]+1/T^j1 wherein R^i1obs is the observed relaxation […] of the selected contrast agent, T1obs is the observed longitudinal relaxation time of the solution and the indexes i and j relate to the contrast agent and to the medium respectively.

[2] = Stability at 37° C. of diazepine complexes determined through r1p measurement in different media; format: physicochemical; details: 0.47T, 25° C.
Method: as §1
In its turn, this means that the present amphiphilic complexes can be administered and detected during MRI experiments allowing a clear and exhaustive analysis of the image over a suitable frame of time.

SMILES	r1p ([1]; HSA 4%) [mM⁻¹ s⁻¹]	r1p ([1]; Human plasma) [mM⁻¹ s⁻¹]	r1p ([1]; Water) [mM⁻¹ s⁻¹]	r1p (stability at 37° C.) ([2]; Water, T0) [mM⁻¹ s⁻¹]	further results
O=C([O-])CN1CCN(CC(=O)[O-])CCN([C@H](CO)[C@H](O)CO)CCN(CC(=O)[O-])CC1.[Gd+3] [Gd-BT-DO3A, reference compound]	4.31	5.76	3.75	–	–
CCCCCCCCCCN(CCCCCCCCCC)C(=O)CCCCC1(N(CC(=O)[O-])CC(=O)[O-])CN(CC(=O)[O-])CCN(CC(=O)[O-])C1.[Gd+3].[Na+] [Compound 12d, [[6-[Bis[(carboxy)methyl]amino]-6-[5-(didecylamino)-5-oxopent-1-yl]-tetrahydro-1H-1,4-diazepine-1,4(5H)-diacetate(4-)]gadolinate(1-)]sodium]	46.7	45.2	23.5	23.5	r1p (stability at 37° C.) ([2]; HSA 4%, 5 h): 40.9 mM⁻¹ s⁻¹; r1p (stability at 37° C.) ([2]; HSA 4%, T0): 46.7 mM⁻¹ s⁻¹; r1p (stability at 37° C.) ([2]; Human plasma, 2 h): 39.2 mM⁻¹ s⁻¹; r1p (stability at 37° C.) ([2]; Human plasma, 5 h): 34.7 mM⁻¹ s⁻¹; r1p (stability at 37° C.) ([2]; Human plasma, T0): 45.2 mM⁻¹ s⁻¹; r1p (stability at 37° C.) ([2]; Water, 2 h): 20.4 mM⁻¹ s⁻¹; r1p (stability at 37° C.) ([2]; Water, 5 h): 15.8 mM⁻¹ s⁻¹
C[NH2+]C[C@H](O)[C@@H](O)[C@H](O)[C@H](O)CO.C[NH2+]C[C@H](O)[C@@H](O)[C@H](O)[C@H](O)CO.O=C([O-])CN(CCN(CC(=O)[O-])CC(=O)[O-])CCN(CC(=O)[O-])C(COCc1ccccc1)C(=O)[O-].[Gd+3] (stereo not drawn) [Gd-BOPTA, [[4-(carboxy)-5,8,11-tris(carboxymethyl)-1-phenyl-2-oxa-5,8,11-triazatridecan-13-oato(5-)]gadolinate(2-)]dimeglumine, reference compound]	8.9	8.7	4.6	–	–
CC(O)CN1CCN(CC(=O)[O-])CCN(CC(=O)[O-])CCN(CC(=O)[O-])CC1.[Gd+3] (stereo not drawn) [Gd-HP-DO3A, [10-(2-hydroxyprop-1-yl)-1,4,7,10-tetraazacyclododecane-1,4,7-triacetato(3-)]gadolinium, reference compound]	3.85	4.80	3.32	–	–
CCCCCCCCCCN(CCCCCCCCCC)C(=O)C1CCC(C2(N(CC(=O)[O-])CC(=O)[O-])CN(CC(=O)[O-])CCN(CC(=O)[O-])C2)CC1.[Gd+3].[Na+] [Compound 25a, [[6-[Bis(carboxymethyl)amino]-6-[(1R,4R)-4-[(didecylamino)-carbonyl]-cyclohexane-1-yl]tetrahydro-1H-1,4-diazepine-1,4(5H)diacetate(4-)]gadolinate(1-)]sodium]	45.8	41.1	23.9	23.9	r1p (stability at 37° C.) ([2]; HSA 4%, 5 h): 40.4 mM⁻¹ s⁻¹; r1p (stability at 37° C.) ([2]; HSA 4%, T0): 45.8 mM⁻¹ s⁻¹; r1p (stability at 37° C.) ([2]; Water, 5 h): 23.4 mM⁻¹ s⁻¹
CCCCCCCCN(CCCCCCCC)C(=O)CCCCC1(N(CC(=O)[O-])CC(=O)[O-])CN(CC(=O)[O-])CCN(CC(=O)[O-])C1.[Gd+3].[Na+] [Compound 12c, [[6-[Bis[(carboxy)methyl]amino]-6-[5-(dioctylamino)-5-oxopent-1-yl]-tetrahydro-1H-1,4-diazepine-1,4(5H)-diacetate(4-)]gadolinate(1-)]sodium]	54.2	50.2	13.3	–	–
CCCCCCN(CCCCCC)C(=O)CCCCC1(N(CC(=O)[O-])CC(=O)[O-])CN(CC(=O)[O-])CCN(CC(=O)[O-])C1.[Gd+3].[Na+] [Compound 12b, [[6-[Bis[(carboxy)methyl]amino]-6-[5-(dihexylamino)-5-oxopent-1-yl]-tetrahydro-1H-1,4-diazepine-1,4(5H)-diacetate(4-)]gadolinate(1-)]sodium]	31.5	33.7	13.0	–	–
CCCCCCCCCC(=O)OC[C@H](COP(=O)([O-])OCCNC(=O)C1CCC(C2(N(CC(=O)[O-])CC(=O)[O-])CN(CC(=O)[O-])CCN(CC(=O)[O-])C2)CC1)OC(=O)CCCCCCCCC.[Gd+3].[Na+].[Na+] (stereo partly drawn) [Compound 25c, [6-[-[Bis(carboxymethyl)amino]-6-[(1R,4R)-4-[[[(7R)-4-hydroxy-4-oxido-10-oxo-7-[(1-oxodecyl)oxy]-3,5,9-trioxa-4-phosphanonadec-1-yl]amino]-carbonyl]-cyclohexane-1-yl]tetrahydro-1H-1,4-diazepine-1,4(5H)-diacetate(5)]gadolinate(2-)]disodium]	40.2	43.0	14.7	–	–
C[NH2+]C[C@H](O)[C@@H](O)[C@H](O)[C@H](O)CO.O=C([O-])CN1CCN(CC(=O)[O-])CCN(CC(=O)[O-])CCN(CC(=O)[O-])CC1.[Gd+3] [Gd-DOTA, [[1,4,7,10-tetraazacyclododecane-1,4,7,10-tetraacetato(4-)]gadolinate(1-)] meglumine, reference compound]	4.11	4.51	3.61	–	–
CCCCCCCCCCCC(=O)OC[C@H](COP(=O)(O)OCCNC(=O)CCCCC1(N(CC(=O)[O-])CC(=O)[O-])CN(CC(=O)[O-])CCN(CC(=O)[O-])C1)OC(=O)CCCCCCCCCCC.[Gd+3].[Na+] [Compound 9b]	32.0	32.5	16.7	16.7	r1p (stability at 37° C.) ([2]; Human plasma, 1 h): 30.9 mM⁻¹ s⁻¹; r1p (stability at 37° C.) ([2]; Human plasma, 4 h): 28.3 mM⁻¹ s⁻¹; r1p (stability at 37° C.) ([2]; Human plasma, T0): 32.5 mM⁻¹ s⁻¹; r1p (stability at 37° C.) ([2]; Water, 1 h): 15.9 mM⁻¹ s⁻¹; r1p (stability at 37° C.) ([2]; Water, 4 h): 15.5 mM⁻¹ s⁻¹
CCCCCCCCCCCCN(CCCCCCCCCCCC)C(=O)CCCCC1(N(CC(=O)[O-])CC(=O)[O-])CN(CC(=O)[O-])CCN(CC(=O)[O-])C1.[Gd+3].[Na+] [Compound 12e, [[6-[Bis[(carboxy)methyl]amino]-6-[5-(didodecylamino)-5-oxopent-1-yl]-tetrahydro-1H-1,4-diazepine-1,4(5H)-diacetate(4-)]gadolinate(1-)]sodium]	40.4	36.2	33.4	33.4	r1p (stability at 37° C.) ([2]; Human plasma, 2 h): 35.2 mM⁻¹ s⁻¹; r1p (stability at 37° C.) ([2]; Human plasma, 4 h): 32.3 mM⁻¹ s⁻¹; r1p (stability at 37° C.) ([2]; Human plasma, T0): 36.2 mM⁻¹ s⁻¹; r1p (stability at 37° C.) ([2]; Water, 2 h): 31.3 mM⁻¹ s⁻¹; r1p (stability at 37° C.) ([2]; Water, 4 h): 30.4 mM⁻¹ s⁻¹
CCCCCCCCN(CCCCCCCC)C(=O)C1CCC(C2(N(CC(=O)[O-])CC(=O)[O-])CN(CC(=O)[O-])CCN(CC(=O)[O-])C2)CC1.[Gd+3].[Na+] [Compound 25b, [6-[Bis(carboxymethyl)amino]-6-[(1R,4R)-4-[(dioctylamino)-carbonyl]-cyclohexane-1-yl]tetrahydro-1H-1,4-diazepine-1,4(5H)diacetate(4-)]gadolinate(1-)]sodium]	41.0	39.1	14.6	–	–
